Measurements from the supplement of paper PMC11061612.

Legend:
Assay in all cases: Bliss excess, mean over the matrix (fraction); higher = more synergy
GI-ME-N (Neuroblastoma) = tested on: GI-ME-N (Neuroblastoma)
Method in brief: (§1)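 Cell lines grown in DMEM/F12 or RPMI with 10% FBS were plated in 1536-well plates and held 24 hours at 37°C, 5% CO2 before 72 hours of exposure to two-drug dose matrices, with DMSO typically at 0.2%. CellTiter-Glo 2.0 luminescence gave viability, which was converted to inhibition. Vehicle wells were set to 0 and blank wells to 1. Combination Emax is the second-highest inhibition in the matrix, and Bliss excess is the observed combination effect minus the expected EA + EB − EA·EB, where EA and EB are the single-agent effects.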

[1] = tested on: HCC1954 (Breast Carcinoma)
Method in brief: as §1

IGR-37 (Melanoma) = tested on: IGR-37 (Melanoma)
Method in brief: as §1

[2] = tested on: OS-RC-2 (Kidney Carcinoma)
Method in brief: as §1

[3] = tested on: NCI-H2066 (Squamous Cell Lung Carcinoma)
Method in brief: as §1

[4] = tested on: TT2609-C02 (Thyroid Gland Carcinoma)
Method in brief: as §1

8-MG-BA (Glioblastoma) = tested on: 8-MG-BA (Glioblastoma)
Method in brief: as §1

[5] = tested on: KARPAS-422 (B-Cell Non-Hodgkin's Lymphoma)
Method in brief: as §1

NCI-H2591 (Mesothelioma) = tested on: NCI-H2591 (Mesothelioma)
Method in brief: as §1

[6] = tested on: MDST8 (Colorectal Carcinoma)
Method in brief: as §1

[7] = tested on: JSC-1 (B-Cell Non-Hodgkin's Lymphoma)
Method in brief: as §1

[8] = tested on: NCI-H1693 (Lung Adenocarcinoma)
Method in brief: as §1

Hs-445 (Non-Cancerous) = tested on: Hs-445 (Non-Cancerous)
Method in brief: as §1

[9] = tested on: COLO-824 (Breast Carcinoma)
Method in brief: as §1

[10] = tested on: ONS-76 (Other Solid Carcinomas)
Method in brief: as §1

[11] = tested on: NCI-H2141 (Small Cell Lung Carcinoma)
Method in brief: as §1

[12] = tested on: CAPAN-2 (Pancreatic Carcinoma)
Method in brief: as §1

[13] = tested on: SISO (Cervical Carcinoma)
Method in brief: as §1

FU97 (Gastric Carcinoma) = tested on: FU97 (Gastric Carcinoma)
Method in brief: as §1

[14] = tested on: PANC-10-05 (Pancreatic Carcinoma)
Method in brief: as §1

Structure (SMILES) | Bliss excess (GI-ME-N (Neuroblastoma)) | Bliss excess [1] | Bliss excess (IGR-37 (Melanoma)) | Bliss excess [2] | Bliss excess [3] | Bliss excess [4] | Bliss excess (8-MG-BA (Glioblastoma)) | Bliss excess [5] | Bliss excess (NCI-H2591 (Mesothelioma)) | Bliss excess [6] | Bliss excess [7] | Bliss excess [8] | Bliss excess (Hs-445 (Non-Cancerous)) | Bliss excess [9] | Bliss excess [10] | Bliss excess [11] | Bliss excess [12] | Bliss excess [13] | Bliss excess (FU97 (Gastric Carcinoma)) | Bliss excess [14]
COc1nnc2ccc(N3CCC(c4ccc(OCCN5CCN(C)C(=O)[C@H]5C)cc4)CC3)nn12 [AZD5153] + CCN(CCO)CCCOc1ccc2c(Nc3cc(CC(=O)Nc4cccc(F)c4)[nH]n3)ncnc2c1 [AZD2811] (first compound max 1 µM, 7x7, partner max 1 µM) | 0.0022 | -0.011 | 0.0031 | -0.0473 | -0.0352 | -0.076 | 0.0121 | -0.0472 | -0.0181 | 0.0761 | 0.0038 | -0.098 | -0.0783 | -0.0422 | -0.0124 | 0.0226 | -0.0286 | 0.0112 | -0.0048 | -0.0713
COc1nnc2ccc(N3CCC(c4ccc(OCCN5CCN(C)C(=O)[C@H]5C)cc4)CC3)nn12 [AZD5153] + C[C@@H]1COCCN1C2=NC(=NC(=C2)C3(CC3)[S@](=N)(=O)C)C4=C5C=CNC5=NC=C4 [AZD6738] (first compound max 1 µM, 7x7, partner max 10 µM) | 0.0858 | 0.0323 | -0.0149 | 0.0699 | -0.0454 | 0.0179 | -0.0849 | -0.0759 | 0.0634 | 0.0544 | -0.067 | -0.0383 | -0.0475 | 0.0541 | -0.0698 | 0.043 | 0.0047 | 0.008 | 0.0043 | -0.0928
COc1nnc2ccc(N3CCC(c4ccc(OCCN5CCN(C)C(=O)[C@H]5C)cc4)CC3)nn12 [AZD5153] + Cc1c2c(nn1C)CSCc1cc(n(C)n1)CSc1cc(c3ccccc3c1)OCCCc1c(C(=O)O)n(C)c3c-2c(Cl)ccc13 [AZD5991] (first compound max 1 µM, 7x7, partner max 1 µM) | -0.0142 | 0.0771 | 0.0608 | -0.0106 | -0.0569 | -0.0295 | -0.0367 | -0.0432 | -0.0657 | 0.0069 | -0.0542 | -0.0418 | -0.0723 | -0.0584 | -0.0081 | 0.0096 | -0.0078 | 0.0698 | 0.0934 | -0.0759
COc1nnc2ccc(N3CCC(c4ccc(OCCN5CCN(C)C(=O)[C@H]5C)cc4)CC3)nn12 [AZD5153] + Cn1cnc2c(F)c(Nc3ccc(Br)cc3Cl)c(C(=O)NOCCO)cc21 [Selumetinib] (first compound max 1 µM, 7x7, partner max 10 µM) | -0.0636 | -0.0118 | 0.0624 | -0.0235 | -0.0123 | -0.0074 | -0.007 | -0.0311 | -0.0065 | 0.0646 | -0.0165 | 0.0093 | -0.0232 | 0.007 | -0.0127 | -0.0277 | 0.0202 | -0.008 | -0.0254 | -0.0736
Cc1c2c(nn1C)CSCc1cc(n(C)n1)CSc1cc(c3ccccc3c1)OCCCc1c(C(=O)O)n(C)c3c-2c(Cl)ccc13 [AZD5991] + C=CCn1c(=O)c2cnc(Nc3ccc(N4CCN(C)CC4)cc3)nc2n1-c1cccc(C(C)(C)O)n1 [AZD1775] (first compound max 1 µM, partner max 1 µM) | 0.0646 | 0.0435 | -0.0015 | -0.0046 | -0.0231 | 0.0087 | -0.0123 | -0.0192 | 0.0396 | 0.0087 | -0.0042 | 0.0581 | 0.0139 | -0.0593 | -0.0214 | -0.0145 | 0.0292 | -0.0417 | 0.0503 | -0.0551
Cc1c2c(nn1C)CSCc1cc(n(C)n1)CSc1cc(c3ccccc3c1)OCCCc1c(C(=O)O)n(C)c3c-2c(Cl)ccc13 [AZD5991] + CC1(C)CCC(CN2CCN(c3ccc(C(=O)NS(=O)(=O)c4ccc(NCC5CCOCC5)c([N+](=O)[O-])c4)c(Oc4cnc5[nH]ccc5c4)c3)CC2)=C(c2ccc(Cl)cc2)C1 [Venetoclax] (first compound max 1 µM, 7x7, partner max 1 µM) | -0.0408 | 0.0401 | -0.0167 | -0.0686 | -0.0303 | -0.0069 | 0.048 | 0.205 | -0.0252 | -0.0359 | 0.0155 | -0.025 | 0.0357 | 0.11 | -0.0214 | 0.107 | -0.0292 | -0.0181 | -0.0525 | -0.0506
Cc1c2c(nn1C)CSCc1cc(n(C)n1)CSc1cc(c3ccccc3c1)OCCCc1c(C(=O)O)n(C)c3c-2c(Cl)ccc13 [AZD5991] + CN(C)CCCOc1ccc(-c2ccc3ncc4c(c3c2)n(C2CCOCC2)c(=O)n4C)cn1 [AZD0156] (first compound max 1 µM, 7x7, partner max 1 µM) | -0.04 | 0.0247 | 0.0148 | -0.0096 | -0.0084 | 0.0199 | 0.0044 | -0.0675 | 0.0036 | 0.0114 | -0.0081 | -0.0254 | -0.106 | -0.004 | -0.0291 | -0.0146 | 0.0062 | 0.0222 | -0.058 | -0.0048
Cc1c2c(nn1C)CSCc1cc(n(C)n1)CSc1cc(c3ccccc3c1)OCCCc1c(C(=O)O)n(C)c3c-2c(Cl)ccc13 [AZD5991] + C[C@@H](Nc1cc(F)cc(F)c1)c1cc(C(=O)N(C)C)cc2c(=O)cc(N3CCOCC3)oc12 [AZD8186] (first compound max 1 µM, 7x7, partner max 3 µM) | -0.0631 | 0.031 | 0.038 | -0.0226 | -0.0445 | -0.0192 | 0.0956 | -0.0143 | -0.0164 | -0.0268 | -0.0289 | -0.0461 | -0.0177 | 0.0043 | -0.0517 | 0.0257 | 0.023 | -0.0067 | 0.0594 | -0.0473
Cc1c2c(nn1C)CSCc1cc(n(C)n1)CSc1cc(c3ccccc3c1)OCCCc1c(C(=O)O)n(C)c3c-2c(Cl)ccc13 [AZD5991] + Cc1cc2ncnn2cc1Nc1ncc2c(n1)n(C1CCOCC1)c(=O)n2C [AZD7648] (first compound max 1 µM, 7x7, partner max 10 µM) | -0.0863 | -0.0095 | 0.0039 | -0.068 | -0.0141 | -0.038 | 0.0218 | -0.0008 | -0.0106 | -0.0487 | -0.0499 | -0.026 | -0.0109 | -0.0187 | -0.0236 | -0.0101 | 0.0141 | -0.0221 | -0.044 | -0.0758
Cc1c2c(nn1C)CSCc1cc(n(C)n1)CSc1cc(c3ccccc3c1)OCCCc1c(C(=O)O)n(C)c3c-2c(Cl)ccc13 [AZD5991] + Cn1cnc2c(F)c(Nc3ccc(Br)cc3Cl)c(C(=O)NOCCO)cc21 [Selumetinib] (first compound max 1 µM, 7x7, partner max 3 µM) | -0.06 | 0.0333 | 0.0044 | -0.0557 | 0.0459 | -0.0402 | 0.098 | -0.0157 | -0.0127 | -0.0014 | 0.027 | 0.0314 | 0.0106 | -0.0049 | 0.0319 | 0.0056 | 0.0129 | -0.0134 | -0.0609 | -0.0186
C[C@@H]1COCCN1c1cc(C2([S@](C)(=N)=O)CC2)nc(-c2ccnc3[nH]ccc23)n1 [AZD6738] + O=C(c1cc(Cc2n[nH]c(=O)c3ccccc23)ccc1F)N1CCN(C(=O)C2CC2)CC1 [Olaparib] (first compound max 10 µM, 7x7, partner max 10 µM) | -0.0252 | 0.0028 | -0.0475 | -0.0085 | -0.0682 | 0.0176 | 0.0521 | -0.0539 | 0.0123 | 0.0052 | -0.0254 | -0.0082 | -0.0067 | -0.0314 | -0.0284 | 0.0682 | -0.0255 | 0.0221 | 0.023 | -0.0133
Cc1cc2ncnn2cc1Nc1ncc2c(n1)n(C1CCOCC1)c(=O)n2C [AZD7648] + C=CCn1c(=O)c2cnc(Nc3ccc(N4CCN(C)CC4)cc3)nc2n1-c1cccc(C(C)(C)O)n1 [AZD1775] (first compound max 10 µM, partner max 1 µM) | 0.0213 | 0.0065 | -0.0007 | -0.0474 | -0.105 | -0.0218 | -0.0114 | -0.187 | 0.0043 | 0.0177 | -0.0166 | 0.0055 | -0.0501 | -0.0448 | -0.0046 | -0.0515 | 0.0132 | -0.0005 | 0.0004 | -0.0429
Cc1cc2ncnn2cc1Nc1ncc2c(n1)n(C1CCOCC1)c(=O)n2C [AZD7648] + CCN(CCO)CCCOc1ccc2c(Nc3cc(CC(=O)Nc4cccc(F)c4)[nH]n3)ncnc2c1 [AZD2811] (first compound max 10 µM, 7x7, partner max 1 µM) | 0.0032 | 0.0561 | 0.0315 | 0.0201 | -0.0318 | 0.0149 | 0.0664 | -0.0417 | 0.0506 | 0.0619 | 0.0813 | -0.0059 | 0.0394 | 0.0116 | 0.0443 | 0.0625 | -0.0525 | 0.0662 | -0.0667 | -0.0341
Cc1cc2ncnn2cc1Nc1ncc2c(n1)n(C1CCOCC1)c(=O)n2C [AZD7648] + CN(C)CCCOc1ccc(-c2ccc3ncc4c(c3c2)n(C2CCOCC2)c(=O)n4C)cn1 [AZD0156] (first compound max 10 µM, 7x7, partner max 1 µM) | 0.0015 | 0.0111 | 0.0285 | 0.0028 | -0.026 | -0.0188 | 0.029 | -0.138 | -0.0089 | 0.0012 | 0.0412 | 0.0173 | -0.0388 | -0.0145 | -0.0014 | 0.0033 | -0.0168 | 0.0339 | -0.0915 | -0.0059
Cc1cc2ncnn2cc1Nc1ncc2c(n1)n(C1CCOCC1)c(=O)n2C [AZD7648] + C[C@@H]1COCCN1C2=NC(=NC(=C2)C3(CC3)[S@](=N)(=O)C)C4=C5C=CNC5=NC=C4 [AZD6738] (first compound max 10 µM, 7x7, partner max 10 µM) | 0.0346 | 0.0568 | -0.0228 | -0.0077 | 0.025 | -0.0004 | 0.0602 | -0.0856 | 0.04 | -0.0085 | 0.0038 | 0.0177 | 0.001 | 0.0794 | -0.0282 | 0.0088 | 0.022 | 0.0202 | -0.0017 | 0.0487
